The values that follow come from PMC9078399, “Discovery of N-cyclobutylaminoethoxyisoxazole derivatives as novel sigma-1 receptor ligands with neurite outgrowth efficacy in cells” (RSC Advances, 2018).

“Also recorded” adds a separate entry of the source. Where two headings read alike, the source gives them in different places. Where only a bound is given, the exact number is not on record here.

The term Ki denotes the dissociation constant of the complex between target and ligand, obtained from inhibition or displacement.

In assay [1] the target is T1, DAT: dopamine transporter (Homo sapiens, UniProt Q01959). The assay can be described thus: Radioligand binding at DAT ([3H] WIN35428). Here is the method:
(§1) In order to exclude the potential interference of other receptor pathways to the observed neuritogenesis efficacy, we assessed the binding affinities of compounds 7, 18, 22, 24, 25, 28 and 29 at the biogenic amine transporters (NET, DAT, and SERT).
(§2) Radioligand competition studies were carried out by the National Institute of Mental Health's Psychoactive Drug Screening Program, Contract #HHSN-271-2008-00025-C (NIMH PDSP). The general procedures are listed as follows:
(§3) For experimental details please refer to the PDSP website http://pdsp.med.unc.edu/.[28]

Assay [2] deals with T2, σ1 receptor (Cavia porcellus, UniProt Q60492).
T2 construct: σ1 receptor, [^3H]-(+)-pentazocine, Guinea pig brain homogenate; from tissue; host or cells: Guinea pig brain homogenate
T2 sequence (Q60492 whole entry): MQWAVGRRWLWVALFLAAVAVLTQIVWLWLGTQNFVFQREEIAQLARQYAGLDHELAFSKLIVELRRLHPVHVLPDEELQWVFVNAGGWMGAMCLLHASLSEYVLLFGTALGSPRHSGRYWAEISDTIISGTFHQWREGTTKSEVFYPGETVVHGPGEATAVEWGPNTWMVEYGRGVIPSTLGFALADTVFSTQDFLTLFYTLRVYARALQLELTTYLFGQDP
The assay can be described thus: Radioligand binding at σ1 receptor ([3H]-(+)-pentazocine, NIMH PDSP). Further details: species or system Guinea pig. The conditions noted are these: for Ki: [3H]-(+)-pentazocine, Guinea pig brain homogenate, mean ± SEM, three independent experiments; for Selectivity (Ki σ2/Ki σ1): ratio of Ki σ2 to Ki σ1.
Source text: (§4) In this study, [^3H] pentazocine and [^3H]DTG (6) were used as the radioligands at σ1 and σ2 receptors. Firstly, we examined the effects of changing the substituents on the benzene ring. […] Mono-halogen substitution on the benzene ring exemplified by compounds 17–20 generally retained affinity for σ1 receptor compared with compound 7. […] The derivatives 21–25 also maintained similar high affinities for the σ1 receptor upon incorporation of two halogen atoms on the benzene ring. However, this is also accompanied with higher binding affinity to the σ2 receptor. […]. Next, we examined the effects of removing the methyl group on the basic nitrogen atom. […] […]. […] The results for the secondary amines 28 and 29 indicate that the hydrogen bond donor on basic nitrogen atom was beneficial for increased binding affinity to the σ1 receptor.
as §2
(§5) All the test compounds solution (1 mg mL^−1) were prepared by dissolving in DMSO or buffer solvent (50 mM Tris–HCl, pH = 8.0). The filter-mats were presoaked in 0.5% aqueous polyethyleneimine solution for 2 h at rt before use. All binding experiments were carried out in poly-L-lysine-coated 96-well plate and the final test concentration (50 μM, 5 μM, 1.5 μM, 500 nM, 150 nM, 50 nM, 15 nM, 5 nM, 1.5 nM, 0.5 nM, 0.05 nM) were prepared by addition of Tris–HCl solution (50 mM, pH = 8.0). The following specific radioligands and tissue source were used: (a) σ1 receptor, [^3H]-(+)-pentazocine, Guinea pig brain homogenate; (b) σ2 receptor, [^3H]-DTG, PC-12 cells. 100 μL of corresponding radioligand solution, 100 μL test compound solution and 50 μL of the respective receptor preparation into each well of the plate (total volume 250 μL). During the incubation, the plates were shaken at a speed of 500–600 rpm at the specified temperature (σ1 receptor, 37 °C, 150 min; σ2 receptor, rt, 120 min). The incubation was followed by a rapid vacuum filtration through Whatman GF/B glass filters, and the filtrates were washed twice with 10 mL of cold buffer and transferred to the 6 mL scintillation vials. EcoScint scintillation fluid (4.0 mL) was added, and the radioactivity bound was measured using a Beckman LS 6500 liquid scintillation counter. All experiments were performed at least three times.
as §3

The next assay concerns N1E-115 neuronal cells. The assay can be described thus: Neurite outgrowth in N1E-115 cells. It is filed as cell-based, mouse. As to conditions: 10 μM in DMSO, four days, vs. vehicle (DMSO). How it is done: Following the radioligand binding studies and CNS MPO calculations, all of the synthesized derivatives were further tested in cellular neuritogenesis studies. In this study, N1E-115 neuronal cells were used as a screening platform for assessing the neuritogenesis effects of candidate compounds.[31,32] All the derivatives and positive control (compound 7 and RC-33) were assessed at 10 μM concentration in DMSO, and vehicle group using DMSO alone.
N1E-115 cells, the mouse neuroblastoma cell lines, were obtained from the American Type Culture Collection (ATCC, Manassas, VA, USA). Undifferentiated N1E115 cells were cultured in DMEM complete medium with 10% fetal bovine serum, 100 U mL^−1 of penicillin, and 100 μg mL^−1 of streptomycin and maintained at 37 °C in a humidified incubator supplemented with 5% CO2. N1E-115 cells were seeded at a density of 1 × 10^4 cells per mL on poly-L-lysine-coated 96-well plates and grown with DMSO or different tested compounds (10 μM) in DMSO solution for four days. Four days after incubation, morphometric analysis was performed on digitized images of live cells taken under phase contrast illumination with an inverted microscope linked to a camera. Images of five fields per well were taken with an average of 100 cells per field. Cells that had at least one neurite with a length that was twice as long as the body diameter were expressed as a percentage of the total cells in the field. The counting was performed in a blinded manner. All experiments were performed at least five times.

The target of assay [3] is T3, NET: norepinephrine transporter (Homo sapiens, UniProt P23975). The assay can be described thus: Radioligand binding at NET ([3H] nisoxetine). Here is the method: as §1, §2, §3
T3 sequence (P23975 whole entry): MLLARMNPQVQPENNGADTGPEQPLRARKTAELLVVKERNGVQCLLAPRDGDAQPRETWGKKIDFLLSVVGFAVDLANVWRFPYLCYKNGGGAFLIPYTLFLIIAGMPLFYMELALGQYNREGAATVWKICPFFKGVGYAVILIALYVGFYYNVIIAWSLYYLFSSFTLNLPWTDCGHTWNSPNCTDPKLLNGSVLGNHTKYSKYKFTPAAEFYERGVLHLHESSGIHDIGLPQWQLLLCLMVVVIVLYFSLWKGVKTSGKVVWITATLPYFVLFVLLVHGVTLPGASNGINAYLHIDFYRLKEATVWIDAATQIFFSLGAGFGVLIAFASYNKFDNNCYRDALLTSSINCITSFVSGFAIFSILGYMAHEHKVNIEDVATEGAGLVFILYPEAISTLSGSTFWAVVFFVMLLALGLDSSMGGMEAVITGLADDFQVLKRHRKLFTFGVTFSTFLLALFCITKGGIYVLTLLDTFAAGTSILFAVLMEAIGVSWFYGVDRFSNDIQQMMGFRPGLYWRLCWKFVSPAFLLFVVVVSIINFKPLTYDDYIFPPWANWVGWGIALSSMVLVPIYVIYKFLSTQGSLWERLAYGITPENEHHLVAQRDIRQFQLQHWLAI
Assay [4] has as its target T4, σ2 receptor (Rattus norvegicus, UniProt Q5U3Y7).
T4 construct: (b) σ2 receptor, [^3H]-DTG, PC-12 cells; endogenous in cells; host or cells: PC-12 cells
T4 sequence (Q5U3Y7 1-176): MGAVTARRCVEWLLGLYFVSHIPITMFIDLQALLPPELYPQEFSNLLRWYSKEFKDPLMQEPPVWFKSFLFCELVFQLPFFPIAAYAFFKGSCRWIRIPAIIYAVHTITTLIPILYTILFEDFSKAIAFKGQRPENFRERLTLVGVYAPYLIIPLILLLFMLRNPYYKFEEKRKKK
The assay can be described thus: Radioligand binding at σ2 receptor ([3H]-DTG, NIMH PDSP). As to conditions: for Ki: [3H] DTG, PC12 cells, mean ± SEM, three independent experiments.
Source text: as §4, §2, §5, §3

Assay [5] has as its target σ2 receptor. Further details: method as in PMID 21278085, PMID 15170821, PMID 18647636, PMID 22935988, PMID 21967807. The conditions noted are these: representative σ1 receptor ligands, Fig. 1; cited from earlier work.
The target in assay [6] is σ1 receptor. Also noted: method as in PMID 21278085, PMID 15170821, PMID 18647636, PMID 22935988, PMID 21967807. As to conditions: representative σ1 receptor ligands, Fig. 1; cited from earlier work.
Assay [7] has as its target SERT: serotonin transporter (Homo sapiens, UniProt P31645). Further details: method as in PMID 27309376. The conditions noted are these: [3H] citalopram; literature values; cited from earlier work.
Assay [8] addresses T1, DAT: dopamine transporter. Further details: method as in PMID 27309376. The conditions noted are these: [3H] WIN35428; literature values; cited from earlier work.
For assay [9], the target named is T2, σ1 receptor. Further details: method as in PMID 27309376. As to conditions: [3H]-(+)-pentazocine; Guinea pig homogenate; compound 7 value from the literature; cited from earlier work.
A further assay concerns PC12 cells. The assay can be described thus: NGF-induced neurite outgrowth in PC-12 cells. It is filed as cell-based, rat. As to conditions: 10 μM compound with NGF 2.5 ng mL−1, four days. Here is the method: PC-12 cells, from rat pheochromocytoma cell lines, were obtained from the American Type Culture Collection (ATCC, Manassas, VA, USA). Undifferentiated PC12 cells were cultured in DMEM complete medium with 10% heat-inactivated horse serum, 5% fetal bovine serum, 100 U mL^−1 penicillin, and 100 μg mL^−1 streptomycin and maintained at 37 °C in a humidified incubator supplemented with 5% CO2. To induce differentiation, PC12 cells were seeded at a density of 1 × 10^4 cells per mL on a poly-L-lysine-coated 96-well plate and cultured in complete medium containing 2.5 ng mL^−1 NGF or different tested compounds (10 μM) concomitant with 2.5 ng mL^−1 NGF administration. Four days after incubation, morphometric analysis was performed on digitized images of live cells taken under phase contrast illumination with an inverted microscope linked to a camera. Images of five fields per well were taken with an average of 20 cells per field. The number of differentiated cells was determined by counting cells that had at least one neurite with a length equal to the cell body diameter and was expressed as a percentage of the total cells in the field. The counting was performed in a blinded manner. All experiments were performed at least five times.

Assay [10] has as its target T3, NET: norepinephrine transporter. Further details: method as in PMID 27309376. The conditions noted are these: [3H] nisoxetine; literature values; cited from earlier work.
The mark [11] stands for this setting: compared with parent compound 7.

T1 sequence (Q01959 whole entry): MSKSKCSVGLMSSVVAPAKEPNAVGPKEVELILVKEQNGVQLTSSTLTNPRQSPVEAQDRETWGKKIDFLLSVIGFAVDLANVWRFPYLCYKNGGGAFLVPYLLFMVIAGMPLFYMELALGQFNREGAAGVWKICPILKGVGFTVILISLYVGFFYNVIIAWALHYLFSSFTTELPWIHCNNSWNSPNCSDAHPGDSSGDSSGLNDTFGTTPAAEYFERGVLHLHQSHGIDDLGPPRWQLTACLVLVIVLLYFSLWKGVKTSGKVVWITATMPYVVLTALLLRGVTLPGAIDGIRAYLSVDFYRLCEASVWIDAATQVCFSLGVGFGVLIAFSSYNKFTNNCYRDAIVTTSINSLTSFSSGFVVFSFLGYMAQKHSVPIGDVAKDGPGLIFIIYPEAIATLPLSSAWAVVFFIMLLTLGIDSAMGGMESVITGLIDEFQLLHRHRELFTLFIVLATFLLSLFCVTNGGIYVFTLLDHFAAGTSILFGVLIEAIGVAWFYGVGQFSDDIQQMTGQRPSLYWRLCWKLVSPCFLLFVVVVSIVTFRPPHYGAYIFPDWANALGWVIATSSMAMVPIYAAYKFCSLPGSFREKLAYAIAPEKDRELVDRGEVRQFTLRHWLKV
Chain of SERT: serotonin transporter (P31645 whole entry): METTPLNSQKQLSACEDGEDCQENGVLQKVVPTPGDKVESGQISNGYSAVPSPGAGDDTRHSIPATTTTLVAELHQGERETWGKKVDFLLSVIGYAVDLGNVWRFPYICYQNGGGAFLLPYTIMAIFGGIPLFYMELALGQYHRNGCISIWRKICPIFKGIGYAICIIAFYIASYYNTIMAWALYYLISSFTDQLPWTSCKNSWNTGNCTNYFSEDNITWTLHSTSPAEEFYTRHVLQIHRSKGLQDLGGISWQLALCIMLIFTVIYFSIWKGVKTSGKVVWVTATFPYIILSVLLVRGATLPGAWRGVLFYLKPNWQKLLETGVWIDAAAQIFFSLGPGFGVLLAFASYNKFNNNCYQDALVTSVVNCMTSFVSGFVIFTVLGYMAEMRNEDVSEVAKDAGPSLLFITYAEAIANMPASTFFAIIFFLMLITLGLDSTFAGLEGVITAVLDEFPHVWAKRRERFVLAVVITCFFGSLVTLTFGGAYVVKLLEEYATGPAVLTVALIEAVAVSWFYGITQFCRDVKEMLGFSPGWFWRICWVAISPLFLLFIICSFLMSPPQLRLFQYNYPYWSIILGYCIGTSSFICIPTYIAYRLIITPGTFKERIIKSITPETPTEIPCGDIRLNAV

As for `CN(CCOc1cc(COc2cc(F)cc(F)c2)on1)C1CCC1.Cl` [Compound 22, N-(2-((5-((3,5-Difluorophenoxy)methyl)isoxazol-3-yl)oxy)ethyl)-N-methylcyclobutanamine hydrochloride], the Ki is above 10000 nM in [1], 2.4 ± 1.2 nM at σ1 receptor [2], 2880 nM in assay [3] and 57 ± 20.1 nM at σ2 receptor [4]. The “Selectivity (Ki σ2/Ki σ1)” value on σ1 receptor [2] is on record as 24. For the same compound, the “Neurite outgrowth (neuritogenesis) effect” value in the assay on N1E-115 neuronal cells is “preferable neurite outgrowth effects compared to the parent compound 7 and positive control RC-33; also recorded: significant neuritogenesis effects”.

As to `Cl.Clc1cccc(OCc2cc(OCCNC3CCC3)no2)c1` [Compound 29, N-(2-((5-((3-Chlorophenoxy)methyl)isoxazol-3-yl)oxy)ethyl)cyclobutanamine hydrochloride], the Ki in assay [1] amounted to 1520 nM; on σ1 receptor [2], 0.4 ± 0.1 nM; in assay [3], 600 nM; on σ2 receptor [4], 64.5 ± 13.2 nM. Further, the “Selectivity (Ki σ2/Ki σ1)” value on σ1 receptor [2] is listed as 161. For the same compound, the “Neurite outgrowth (neuritogenesis) effect” value in the assay with N1E-115 neuronal cells is “preferable neurite outgrowth effects compared to the parent compound 7 and positive control RC-33; also recorded: significant neuritogenesis effects”.

For the compound `O=C(OCCN1CCOCC1)C1(c2ccccc2)CCCCC1` [PRE-084], the Ki on σ2 receptor [5] is above 10000 nM.

With `COc1ccc(CCN2CCN(CCCc3ccccc3)CC2)cc1OC` [SA4503], the inhibition constant (Ki) is 1800 nM at σ2 receptor [5] and 17 nM at σ1 receptor [6].

In the case of `CN(CCOc1cc(COc2cc(Cl)cc(Cl)c2)on1)C1CCC1.Cl` [Compound 24, N-(2-((5-((3,5-Dichlorophenoxy)methyl)isoxazol-3-yl)oxy)ethyl)-N-methylcyclobutanamine hydrochloride], the Ki in [1] is 1810 nM; on σ1 receptor [2], 7.8 ± 3.2 nM; in [3], 1610 nM; at σ2 receptor [4], 22.8 ± 11.1 nM. In addition, the “Decrease of affinity for σ1 receptor relative to compound 7” value at σ1 receptor [2] (setting [11]) turned out to be 4 fold. For the same compound, the “Selectivity (Ki σ2/Ki σ1)” value on σ1 receptor [2] is recorded as 3.0. Also, the “Neurite outgrowth (neuritogenesis) effect” value with N1E-115 neuronal cells was “preferable neurite outgrowth effects compared to the parent compound 7 and positive control RC-33; also recorded: significant neuritogenesis effects”. Further, the “Increase of binding affinity for σ2 receptor relative to compound 7” value at σ2 receptor [4] (setting [11]) is on record as “more than 10 fold”.

For the compound `CCCN(CCC)CCc1ccc(OC)c(OCCc2ccccc2)c1` [NE-100], the Ki on σ2 receptor [5] was 212 nM; on σ1 receptor [6], 1.03 nM.

On to `Cl.c1ccc(OCc2cc(OCCNC3CCC3)no2)cc1` [Compound 28, N-(2-((5-(Phenoxymethyl)isoxazol-3-yl)oxy)ethyl)cyclobutanamine hydrochloride], for which the Ki on σ1 receptor [2] amounted to 0.2 nM; in assay [3] it was 7100 nM; at σ2 receptor [4], 198 ± 64 nM. Besides, the “Selectivity (Ki σ2/Ki σ1)” value at σ1 receptor [2] amounted to 990. The “Neurite outgrowth (neuritogenesis) effect” value in the assay with N1E-115 neuronal cells is “preferable neurite outgrowth effects compared to the parent compound 7 and positive control RC-33; also recorded: significant neuritogenesis effects”.

With `CN(CCOc1cc(COc2ccc(F)c(Cl)c2)on1)C1CCC1.Cl` [Compound 25, N-(2-((5-((3-Chloro-4-fluorophenoxy)methyl)isoxazol-3-yl)oxy)ethyl)-N-methylcyclobutanamine hydrochloride], the Ki in [1] was above 10000 nM; on σ1 receptor [2], 1.3 ± 0.4 nM; in [3] it was 1780 nM; on σ2 receptor [4] it was 32 ± 6 nM. At σ1 receptor [2], the “Selectivity (Ki σ2/Ki σ1)” value is listed as 25. Also, in the assay with N1E-115 neuronal cells, the “Neurite outgrowth (neuritogenesis) effect” value is “preferable neurite outgrowth effects compared to the parent compound 7 and positive control RC-33; also recorded: significant neuritogenesis effects”.

Take `CN(CCOc1cc(COc2ccccc2)on1)C1CCC1` [Compound 7]: the “Ki, SERT” value in assay [7] is reported as “NA (NA: not active, defined as <50% binding in the primary assay at 10 μM)”. Moreover, the “Selectivity (Ki σ2/Ki σ1)” value on σ1 receptor [2] amounted to 171. Also, the “Ki, DAT” value in [8] is “NA ^c (NA: not active, defined as <50% binding in the primary assay at 10 μM)”. In addition, the Ki on σ1 receptor [9] was 1.8 ± 0.2 nM. Further, the “Effect on NGF-induced neurite outgrowth” value with PC12 cells is “synergistic neurite outgrowth effects at a level similar to that of the positive control RC-33”. Further, in [10], the “Ki, NET” value is “NA (NA: not active, defined as <50% binding in the primary assay at 10 μM)”.

As to `CC(CCN1CCCCC1)c1ccc(-c2ccccc2)cc1` (stereo not drawn) [RC-33], the Ki at σ2 receptor [5] was 103 nM; on σ1 receptor [6] it was 0.7 nM.

`C[C@H](CCN1CCCCC1)c1ccc(-c2ccccc2)cc1` [(R)-RC-33]: the Ki on σ1 receptor [6] was 1.8 nM.
